Measured values: patent US7250434B2, “CCK-1 receptor modulators” (Janssen Pharmaceutica N.V., priority 2003, dated 2007)

molecular target: T1, CCK-1 receptor (Homo sapiens, UniProt P32238); assay: [125I]-BH-CCK-8S competition binding to membranes of CHO-K1 cells stably transfected with the CCK-1 receptor; conditions: membranes of CCK-1 transfected CHO-K1 cells; 20 pM [125I]-BH-CCK-8S; 0.3 μM PD-134,308 present; 60 min at 21±3° C.; Cheng-Prusoff
T1 construct: expressed in transfected cells; membranes
T1 sequence (P32238 1-428): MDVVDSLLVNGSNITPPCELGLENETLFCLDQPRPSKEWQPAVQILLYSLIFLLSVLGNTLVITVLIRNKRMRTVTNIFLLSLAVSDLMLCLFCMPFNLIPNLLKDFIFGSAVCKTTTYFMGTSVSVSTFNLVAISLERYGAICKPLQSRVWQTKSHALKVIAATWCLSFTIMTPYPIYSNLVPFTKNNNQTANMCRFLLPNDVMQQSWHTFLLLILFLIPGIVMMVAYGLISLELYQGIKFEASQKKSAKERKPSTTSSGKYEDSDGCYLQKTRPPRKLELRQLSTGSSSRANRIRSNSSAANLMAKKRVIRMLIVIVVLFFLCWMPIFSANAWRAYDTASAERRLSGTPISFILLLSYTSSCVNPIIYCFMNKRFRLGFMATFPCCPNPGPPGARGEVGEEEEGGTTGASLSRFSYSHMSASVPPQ
Description: CHO-K1 cells that had undergone stable transfection with the CCK-1 receptor were grown in DMEM supplemented with L-glutamine (2 mM), penicillin (50 units/mL) and streptomycin (50 μg/mL). Cells were cultured under continuous G418 selection (2 mM) and were harvested using a rubber cell scraper. CHO-K1 cells were sub-cultured a maximum of ten times before being reseeded from the original stocks.
Membranes were prepared from the stably transfected CHO-K1 cells. Frozen cell pellets (−40° C.) were thawed in 14 mL of buffer A (10 mM HEPES, 130 mM NaCl, 4.7 mM KCl, 5 mM MgCl, 1 mM EGTA and 15.4 mg/100 mL bacitracin at pH 7.2), adapted from Harper et al. (Br. J. Pharmacol. 1996, 118:1717-1726). The thawed pellets were homogenized using a Polytron PT-10 (7×1 s). The homogenates were centrifuged for 5 min at 1500 rpm (600×g), and the resulting pellets were discarded. The supernatants were re-centrifuged in order to collect the receptor-membrane pellets (25 min 15,000 rpm; 39,800×g), which were re-suspended in buffer A.
All assays were conducted in 96-well plates (GF/B millipore filter plates) using buffer A, with 0.3 μM PD-134,308, for the dilutions. The CCK-2 receptor ligand was included to eliminate the contribution of this receptor subtype to the binding. For the optimal cell number determination experiments 20 pM [^125I]-BH-CCK-8S (50 μL 60 pM solution) was incubated with a range of cell concentrations (2.5×105 to 12.5×10^5 cells/well) in a total volume of 150 μL. Total binding of [^125I]-BH-CCK-8S was determined in the presence of 15 μL of buffer A. Non-specific binding of [^125I]-BH-CCK-8S was determined in the presence of 15 μL of 100 μM 2-naphthalenesulphonyl L-aspartyl-(2-phenethyl)amide (2-NAP: see R. A. Hull et al. Br. J. Pharmacol. 1993, 108:734-740), a CCK-1 receptor selective antagonist that is structurally unrelated to the radioligand [^125I]-BH-CCK-8S. The assay preparation was incubated for 1 h at 21±3° C., and then the assay was terminated upon rapid filtration of the preparation under reduced pressure. The loaded filters were washed three times using undiluted PBS (100 μL), and then the residues were transferred to 5 mL scintillation tubes. Bound radioactivity was determined using a gamma counter (count time=1 min). From these experiments a cell concentration of 1 pellet in 40 mL of buffer (2.5×10^6 cells/mL) was chosen for use in other assays (below). To validate the radioligand concentration and incubation time for the assay, saturation and kinetic binding studies were also conducted (see M. F. Morton, The Pharmacological Characterization of Cholecystokinin Receptors in the Human Gastrointestinal Tract. PhD Thesis, University of London, 2000). The affinity of novel compounds was estimated by incubating membrane preparations with 15 μL of competing ligand (0.1 pM-1 mM) for 60 min at 21±3° C. The assay was then terminated according to the procedure outlined above.
The pKi values were determined using the equation of Y.-C. Cheng and W. H. Prusoff (Biochem. Pharmacol. 1973, 22(23):3099-3108):
[formula] To circumvent problems associated with computer-assisted data analysis of compounds with low affinity, the data obtained in the current study were weighted according to a method described by Morton (2000). In brief, 100% and 0% specific binding were defined independently using total binding and binding obtained in the presence of a high concentration of the reference antagonist, 2-NAP.

Row | Compound | Ki [µM]
1 | COc1ccc(-c2[nH]c(/C=C(\C(=O)O)c3cccc(C(F)(F)F)c3)nc2-c2ccc(Cl)c(Cl)c2)cc1 [Example 10, (Z)-3-[4-(3,4-Dichloro-phenyl)-5-(4-methoxy-phenyl)-1H-imidazol-2-yl]-2-(3-trifluoromethyl-phenyl)-acrylic acid] | 0.01
2 | COc1ccc(-c2[nH]c(/C=C(\C(=O)O)c3ccc(C)cc3)nc2-c2ccc(Cl)c(Cl)c2)cc1 [Example 11, (Z)-3-[4-(3,4-Dichloro-phenyl)-5-(4-methoxy-phenyl)-1H-imidazol-2-yl]-2-p-tolyl-acrylic acid] | 0.01
3 | COc1ccc(-c2[nH]c(/C=C(/C(=O)O)c3cccc4ccccc34)nc2-c2ccc(Cl)c(Cl)c2)cc1 [Example 13, (E)-3-[4-(3,4-Dichloro-phenyl)-5-(4-methoxy-phenyl)-1H-imidazol-2-yl]-2-naphthalen-1-yl-acrylic acid] | 0.2
4 | COc1ccc(-c2[nH]c(/C=C(/C(=O)O)c3ccc(C)cc3)nc2-c2ccc(Cl)c(Cl)c2)cc1 [Example 14, (E)-3-[4-(3,4-Dichloro-phenyl)-5-(4-methoxy-phenyl)-1H-imidazol-2-yl]-2-p-tolyl-acrylic acid] | 0.1
5 | COc1ccc(-c2[nH]c(/C=C(/C(=O)O)c3ccc(Cl)cc3)nc2-c2ccc(Cl)c(Cl)c2)cc1 [Example 15, (E)-2-(4-Chloro-phenyl)-3-[4-(3,4-dichloro-phenyl)-5-(4-methoxy-phenyl)-1H-imidazol-2-yl]-acrylic acid] | 0.0794
6 | COc1ccc(-c2[nH]c(/C=C(/C(=O)O)c3cccc(C(F)(F)F)c3)nc2-c2ccc(Cl)c(Cl)c2)cc1 [Example 16, (E)-3-[4-(3,4-Dichloro-phenyl)-5-(4-methoxy-phenyl)-1H-imidazol-2-yl]-2-(3-trifluoromethyl-phenyl)-acrylic acid] | 0.0794
7 | COc1ccc(-c2[nH]c(/C=C(/C(=O)O)c3cccc(C)c3)nc2-c2ccc(Cl)c(Cl)c2)cc1 [Example 17, (E)-3-[4-(3,4-Dichloro-phenyl)-5-(4-methoxy-phenyl)-1H-imidazol-2-yl]-2-m-tolyl-acrylic acid] | 0.0794
8 | COc1ccc(-c2[nH]c(/C=C(/C(=O)O)c3cccc(Cl)c3)nc2-c2ccc(Cl)c(Cl)c2)cc1 [Example 18, (E)-2-(3-Chloro-phenyl)-3-[4-(3,4-dichloro-phenyl)-5-(4-methoxy-phenyl)-1H-imidazol-2-yl]-acrylic acid] | 0.0631
9 | Cc1cccc(/C(=C\c2nc(-c3cc(Cl)ccc3Cl)c(-c3ccc4c(c3)OCO4)[nH]2)C(=O)O)c1 [Example 19, (E)-3-[5-Benzo[1,3]dioxol-5-yl-4-(2,5-dichloro-phenyl)-1H-imidazol-2-yl]-2-m-tolyl-acrylic acid] | 0.0158
10 | O=C(O)/C(=C/c1nc(-c2cc(Cl)ccc2Cl)c(-c2ccc3c(c2)OCO3)[nH]1)c1ccc(Cl)cc1 [Example 20, (E)-3-[5-Benzo[1,3]dioxol-5-yl-4-(2,5-dichloro-phenyl)-1H-imidazol-2-yl]-2-(4-chloro-phenyl)-acrylic acid] | 0.0158
11 | O=C(O)/C(=C/c1nc(-c2cc(Cl)ccc2Cl)c(-c2ccc3c(c2)OCO3)[nH]1)c1cccc(C(F)(F)F)c1 [Example 21, (E)-3-[5-Benzo[1,3]dioxol-5-yl-4-(2,5-dichloro-phenyl)-1H-imidazol-2-yl]-2-(3-trifluoromethyl-phenyl)-acrylic acid] | 0.02
12 | Cc1ccc(/C(=C\c2nc(-c3cc(Cl)ccc3Cl)c(-c3ccc4c(c3)OCO4)[nH]2)C(=O)O)cc1 [Example 22, (E)-3-[5-Benzo[1,3]dioxol-5-yl-4-(2,5-dichloro-phenyl)-1H-imidazol-2-yl]-2-p-tolyl-acrylic acid] | 0.0251
13 | O=C(O)/C(=C/c1nc(-c2cc(Cl)ccc2Cl)c(-c2ccc3c(c2)OCO3)[nH]1)c1cccc2ccccc12 [Example 23, (E)-3-[5-Benzo[1,3]dioxol-5-yl-4-(2,5-dichloro-phenyl)-1H-imidazol-2-yl]-2-naphthalen-1-yl-acrylic acid] | 0.0794

Stronger by Ki, values ahead:

Row | Ki [µM] | Compound
14 | 0.00794 | COc1ccc(-c2[nH]c(/C=C(\C(=O)O)c3cccc(C)c3)nc2-c2ccc(Cl)c(Cl)c2)cc1 [Example 9, (Z)-3-[4-(3,4-Dichloro-phenyl)-5-(4-methoxy-phenyl)-1H-imidazol-2-yl]-2-m-tolyl-acrylic acid]
15 | 0.00501 | O=C(O)/C(=C\c1nc(-c2cc(Cl)ccc2Cl)c(-c2ccc3c(c2)OCO3)[nH]1)c1cccc(C(F)(F)F)c1 [Example 7, (Z)-3-[5-Benzo[1,3]dioxol-5-yl-4-(2,5-dichloro-phenyl)-1H-imidazol-2-yl]-2-(3-trifluoromethyl-phenyl)-acrylic acid]
16 | 0.00501 | COc1ccc(-c2[nH]c(/C=C(\C(=O)O)c3cccc(Cl)c3)nc2-c2ccc(Cl)c(Cl)c2)cc1 [Example 8, (Z)-2-(3-Chloro-phenyl)-3-[4-(3,4-dichloro-phenyl)-5-(4-methoxy-phenyl)-1H-imidazol-2-yl]-acrylic acid]
17 | 0.00501 | O=C(O)/C(=C\c1nc(-c2ccccn2)c(-c2ccc3ccccc3c2)[nH]1)c1cccc(Cl)c1 [Example 12, (Z)-2-(3-Chloro-phenyl)-3-(5-naphthalen-2-yl-4-pyridin-2-yl-1H-imidazol-2-yl)-acrylic acid]
18 | 0.00398 | Cc1ccc(/C(=C/c2nc(-c3cc(Cl)ccc3Cl)c(-c3ccc4c(c3)OCO4)[nH]2)C(=O)O)cc1 [Example 6, (Z)-3-[5-Benzo[1,3]dioxol-5-yl-4-(2,5-dichloro-phenyl)-1H-imidazol-2-yl]-2-p-tolyl-acrylic acid]
19 | 0.00316 | O=C(O)/C(=C/c1nc(-c2cc(Cl)ccc2Cl)c(-c2ccc3c(c2)OCO3)[nH]1)c1cccc(Cl)c1 [Example 2, (E)-3-[5-Benzo[1,3]dioxol-5-yl-4-(2,5-dichloro-phenyl)-1H-imidazol-2-yl]-2-(3-chloro-phenyl)-acrylic acid]
20 | 0.00316 | O=C(O)/C(=C\c1nc(-c2cc(Cl)ccc2Cl)c(-c2ccc3c(c2)OCO3)[nH]1)c1ccc(Cl)cc1 [Example 5, (Z)-3-[5-Benzo[1,3]dioxol-5-yl-4-(2,5-dichloro-phenyl)-1H-imidazol-2-yl]-2-(4-chloro-phenyl)-acrylic acid]
21 | 0.00251 | O=C(O)/C(=C\c1nc(-c2cc(Cl)ccc2Cl)c(-c2ccc3c(c2)OCO3)[nH]1)c1cccc2ccccc12 [Example 4, (Z)-3-[5-Benzo[1,3]dioxol-5-yl-4-(2,5-dichloro-phenyl)-1H-imidazol-2-yl]-2-naphthalen-1-yl-acrylic acid]
22 | 0.002 | O=C(O)/C(=C\c1nc(-c2cc(Cl)ccc2Cl)c(-c2ccc3c(c2)OCO3)[nH]1)c1cccc(Cl)c1 [Example 1, (Z)-3-[5-Benzo[1,3]dioxol-5-yl-4-(2,5-dichloro-phenyl)-1H-imidazol-2-yl]-2-(3-chloro-phenyl)-acrylic acid]
23 | 0.002 | Cc1cccc(/C(=C/c2nc(-c3cc(Cl)ccc3Cl)c(-c3ccc4c(c3)OCO4)[nH]2)C(=O)O)c1 [Example 3, (Z)-3-[5-Benzo[1,3]dioxol-5-yl-4-(2,5-dichloro-phenyl)-1H-imidazol-2-yl]-2-m-tolyl-acrylic acid]
